Source: patent US10010076B2, “Plant control composition containing peptide enhancing agent” (Arch Chemicals, Inc., priority 2013, dated 2018)

Legend:
Eurasian watermilfoil = Eurasian watermilfoil aquaria trial, biomass 4 weeks after treatment; conditions: 8 hr exposure
Aphanizomenon sp. = assay: Toxicity experiment on algae in Morrison Lake site water, cell density of Aphanizomenon sp.; assay type: cell-based
Method: (§1) Five formulations were prepared and tested. The formulations included various pesticides used singularly, a protein surfactant blend used singularly, and pesticides used in combination with a protein surfactant blend. The tests were conducted on cyanophyta (blue-green algae) sampled from Morrison Lake located in Ionia County, Mich. The properties that were tested included the chlorophyll-a concentrations, cell densities, visual observations, and partial application label rates of chelated elemental copper and sodium carbonate peroxyhydrate. The initial chlorophyll-a concentration was determined to be 27.4 μg chlorophyll a/L. The initial water characteristics are listed in table 1. […]
(§2) The formulation tested was sodium carbonate peroxyhydrate and the exposure period was 10 days.
(§3) The algae were exposed to three concentrations in 500 mL flasks. The experiments were initiated using 300 mL of site water. The toxicity experiment was initiated by exposing the algae to 7.4, 22.1, and 36.9 mg sodium carbonate peroxyhydrate/L. Three replicates of each exposure concentration, along with three replicates of untreated controls, were tested. […]

[1] = tested on: cyanophyta (blue-green algae); assay: Toxicity experiment on algae in Morrison Lake site water (chlorophyll-a, visual observations, total algae cell density); assay type: cell-based
Method: as §1, §2, §3

Anabaena sp. = assay: Toxicity experiment on algae in Morrison Lake site water, cell density of Anabaena sp.; assay type: cell-based
Method: as §1, §2, §3

For CCOC(=O)C(Cl)Cc1cc(-n2nc(C)n(C(F)F)c2=O)c(F)cc1Cl (stereo not shown) [Carfentrazone-ethyl, Ethyl 2-chloro-3-[2-chloro-4-fluoro-5-[4-(difluoromethyl)-4,5-dihydro-3-methyl-5-oxo-1H-1,2,4-trizol-1-yl)phenyl]propanoate], the “regrowth of Eurasian watermilfoil” value (Eurasian watermilfoil; 0.1 mg ai/L, 2 WAT) was “regrowth was noted”, the “injury to Eurasian watermilfoil” value (Eurasian watermilfoil; 0.1 mg ai/L, initial) was “initial injury observed” and the “reducing Eurasian watermilfoil biomass” value (Eurasian watermilfoil; 0.2 mg ai/L, 4 WAT) was “effective at reducing Eurasian watermilfoil biomass”.

In the case of O=C([O-])[O-].O=C([O-])[O-].OO.OO.OO.[Na+].[Na+].[Na+].[Na+] [Sodium Carbonate Peroxyhydrate, sodium carbonate peroxyhydrate], the “Avg. Day 4 Cell Density, Aphanizomenon sp.” value (Aphanizomenon sp.; 7.4 mg/L (20 lbs/acre-ft)) is reported as 1.1 × 10^3 cells/mL, the “Avg. Day 10 Cell Density, Aphanizomenon sp.” value (Aphanizomenon sp.; 7.4 mg/L (20 lbs/acre-ft)) is reported as 2.8 × 10^4 cells of/mL and the “Avg. Day 4 Cell Density, Aphanizomenon sp.” value (Aphanizomenon sp.; 22.1 mg/L (60 lbs/acre-ft)) is reported as 6.5 × 10^4 cells/mL. The “Avg. Day 4 Chlorophyll-a” value ([1]; 7.4 mg/L (20 lbs/acre-ft)) was 22.5 µg/L, the “Avg. Day 10 Chlorophyll-a” value ([1]; 7.4 mg/L (20 lbs/acre-ft)) was 8.6 µg/L and the “Avg. Day 4 Chlorophyll-a” value ([1]; 22.1 mg/L (60 lbs/acre-ft)) was 12.5 µg/L. For the same compound, the “Avg. Day 10 Cell Density, Total algae” value ([1]; 22.1 mg/L (60 lbs/acre-ft)) was <1 × 10^3 cells of/mL, the “Avg. Day 10 Chlorophyll-a” value ([1]; 22.1 mg/L (60 lbs/acre-ft)) was 2.7 µg/L and the “Avg. Day 4 Cell Density, Total algae” value ([1]; 36.9 mg/L (100 lbs/acre-ft)) was <1 × 10^3 cells/mL. The “Avg. Day 4 Chlorophyll-a” value ([1]; 36.9 mg/L (100 lbs/acre-ft)) was 7.9 µg/L, the “Avg. Day 10 Cell Density, Total algae” value ([1]; 36.9 mg/L (100 lbs/acre-ft)) was <1 × 10^3 cells of/mL and the “Avg. Day 10 Chlorophyll-a” value ([1]; 36.9 mg/L (100 lbs/acre-ft)) was <2 µg/L. For the same compound, the “concentration of sodium carbonate peroxyhydrate needed for algae control” value ([1]; sodium carbonate peroxyhydrate applied alone) was 22.7 ppm, the “Avg. Day 4 Cell Density, Anabaena sp.” value (Anabaena sp.; 7.4 mg/L (20 lbs/acre-ft)) was 8.9 × 10^4 cells/mL and the “Avg. Day 10 Cell Density, Anabaena sp.” value (Anabaena sp.; 7.4 mg/L (20 lbs/acre-ft)) was 4.1 × 10^4 cells of/mL. The “Avg. Day 4 Cell Density, Anabaena sp.” value (Anabaena sp.; 22.1 mg/L (60 lbs/acre-ft)) was 1.8 × 10^4 cells/mL.
